Data from US11254686B1 (Corvus Pharmaceuticals, Inc., priority 2017, dated 2022).

Legend:
adenosine A3 receptor = adenosine A3 receptor (Homo sapiens (Human), UniProt P0DMS8); test: Adenosine receptor activity assay (Table 1), A3 cAMP; type: cell-based
adenosine A1 receptor = adenosine A1 receptor (Homo sapiens (Human), UniProt P30542); test: Adenosine receptor activity assay (Table 1), A1 cAMP; type: cell-based
adenosine A2B receptor = adenosine A2B receptor (Homo sapiens (Human), UniProt P29275); test: Adenosine receptor activity assay (Table 1), A2B activity; type: biochemical; settings: for Ratio: A2A activity to A2B activity (A2A/A2B); for IC50: read-out: Ave A2B cAMP IC50
adenosine A2B receptor, sequence (P29275 whole entry): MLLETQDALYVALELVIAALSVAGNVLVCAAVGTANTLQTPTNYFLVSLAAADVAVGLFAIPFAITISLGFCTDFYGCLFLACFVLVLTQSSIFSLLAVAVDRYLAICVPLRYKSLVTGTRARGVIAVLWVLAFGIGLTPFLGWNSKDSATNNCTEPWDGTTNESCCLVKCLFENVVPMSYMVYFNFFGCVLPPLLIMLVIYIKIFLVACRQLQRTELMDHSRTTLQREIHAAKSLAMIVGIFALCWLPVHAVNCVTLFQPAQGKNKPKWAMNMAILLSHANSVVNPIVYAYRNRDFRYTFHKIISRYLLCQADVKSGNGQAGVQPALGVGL

adenosine A2A receptor = adenosine A2A receptor (Homo sapiens (Human), UniProt P29274); test: Adenosine receptor activity assay (Table 1), A2A activity; type: biochemical; settings: read-out: Ave A2A cAMP IC50
adenosine A2A receptor, sequence (P29274 whole entry): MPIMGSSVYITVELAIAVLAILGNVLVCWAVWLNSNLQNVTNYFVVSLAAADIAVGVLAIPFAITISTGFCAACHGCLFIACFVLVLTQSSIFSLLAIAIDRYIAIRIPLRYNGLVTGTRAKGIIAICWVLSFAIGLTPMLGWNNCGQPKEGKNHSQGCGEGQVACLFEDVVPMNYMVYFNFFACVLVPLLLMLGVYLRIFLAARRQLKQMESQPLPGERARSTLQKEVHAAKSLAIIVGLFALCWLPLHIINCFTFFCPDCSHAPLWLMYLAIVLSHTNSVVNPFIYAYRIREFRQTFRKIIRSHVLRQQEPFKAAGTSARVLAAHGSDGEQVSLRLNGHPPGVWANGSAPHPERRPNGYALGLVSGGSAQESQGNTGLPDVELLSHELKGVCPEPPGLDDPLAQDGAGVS

adenosine A1 receptor, sequence (P30542 whole entry): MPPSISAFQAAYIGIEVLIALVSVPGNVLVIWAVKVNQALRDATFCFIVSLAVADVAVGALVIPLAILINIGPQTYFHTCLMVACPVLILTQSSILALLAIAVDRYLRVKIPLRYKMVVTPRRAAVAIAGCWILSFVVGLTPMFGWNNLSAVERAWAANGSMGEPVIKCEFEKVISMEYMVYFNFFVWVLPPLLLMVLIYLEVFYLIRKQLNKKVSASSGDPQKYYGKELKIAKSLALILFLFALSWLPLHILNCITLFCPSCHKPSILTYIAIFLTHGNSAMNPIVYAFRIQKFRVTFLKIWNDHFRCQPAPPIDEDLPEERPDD
adenosine A3 receptor, sequence (P0DMS8 whole entry): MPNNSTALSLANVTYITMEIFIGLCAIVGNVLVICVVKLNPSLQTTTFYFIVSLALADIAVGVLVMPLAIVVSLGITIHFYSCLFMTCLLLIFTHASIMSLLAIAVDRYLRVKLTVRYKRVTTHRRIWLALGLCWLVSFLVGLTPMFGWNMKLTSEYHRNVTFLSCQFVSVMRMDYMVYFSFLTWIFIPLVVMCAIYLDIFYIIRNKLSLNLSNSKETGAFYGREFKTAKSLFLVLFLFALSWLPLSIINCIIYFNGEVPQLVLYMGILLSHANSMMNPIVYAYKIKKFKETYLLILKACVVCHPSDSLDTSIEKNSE

| SMILES | IC50 (adenosine A3 receptor) | IC50 (adenosine A1 receptor) | Ratio (adenosine A2B receptor) | IC50 (adenosine A2B receptor) | IC50 (adenosine A2A receptor) |
| --- | --- | --- | --- | --- | --- |
| Cc1cc2nc(N[C@@H](C)c3cccnc3)nc(C(=O)NC[C@@H](C)O)c2s1 [Example Z334, N—((R)-2-Hydroxypropyl)-6-methyl-2-(((S′)-1-(pyridin-3-yl)ethyl)amino)thieno[3,2-d]pyrimidine-4-carboxamide] | 50 to 100 nM | > 500 nM | 171.86 | < 10 nM | 100 to 500 nM |
| C[C@H](Nc1nc(C(=O)N2CC[C@@H](O)C2)c2sccc2n1)c1cncc(Cl)c1 [Example Z237, (2-(((S)-1-(5-Chloropyridin-3-yl)ethyl)amino)thieno[3,2-d]pyrimidin-4-yl)((R)-3-hydroxypyrrolidin-1-yl)methanone] | > 500 nM | > 500 nM | 65.87 | 10 to 50 nM | > 500 nM |
| C[C@H](Nc1nc(C(=O)N2CC[C@@H](CO)C2)c2sccc2n1)c1cncc(F)c1 [Example Z295, (2-(((S)-1-(5-Fluoropyridin-3-yl)ethyl)amino)thieno[3,2-d]pyrimidin-4-yl)((R)-3-(hydroxymethyl)pyrrolidin-1-yl)methanone] | > 500 nM | > 500 nM | 68.33 | < 10 nM | 100 to 500 nM |
| Cc1cc2nc(N[C@@H](C)c3cncc(F)c3)nc(C(=O)N3CCC3)c2s1 [Example Z276, (S)-Azetidin-1-yl(2-((1-(5-fluoropyridin-3-yl)ethyl)amino)-6-methylthieno[3,2-d]pyrimidin-4-yl)methanone] | 50 to 100 nM | 50 to 100 nM | 92.47 | < 10 nM | 50 to 100 nM |
| CC(=O)N[C@H]1CCN(C(=O)c2nc(N[C@@H](C)c3cncc(F)c3)nc3ccsc23)C1 [Example Z331, N—((S)-1-(2-(((S)-1-(5-Fluoropyridin-3-yl)ethyl)amino)thieno[3,2-d]pyrimidine-4-carbonyl)pyrrolidin-3-yl)acetamide] | > 500 nM | > 500 nM | 61.94 | < 10 nM | 100 to 500 nM |
| C[C@H](Nc1nc(C(=O)NCCC2CCNC2)c2sccc2n1)c1cncc(F)c1 (stereo partly drawn) [Example Z386, 2-(((S)-1-(5-Fluoropyridin-3-yl)ethyl)amino)-N-(2-(pyrrolidin-3-yl)ethyl)thieno[3,2-d]pyrimidine-4-carboxamide] | > 500 nM | > 500 nM | 100.94 | 10 to 50 nM | > 500 nM |
| CC(C)NC(=O)c1nc(N[C@@H](C)c2ccccn2)nc2ccsc12 [Example Z199, (S)—N-Isopropyl-2-((1-(pyridin-2-yl)ethyl)amino)thieno[3,2-d]pyrimidine-4-carboxamide] | 50 to 100 nM | > 500 nM | 3.51 | < 10 nM | 10 to 50 nM |
| C[C@H](Nc1nc(C(=O)NC[C@@H](C)O)c2sc(C(F)(F)F)cc2n1)c1cccnc1 [Example Z348, N—((R)-2-Hydroxypropyl)-2-(((S)-1-(pyridin-3-yl)ethyl)amino)-6-(trifluoromethyl)thieno[3,2-d]pyrimidine-4-carboxamide] | 50 to 100 nM | > 500 nM | 92.29 | 10 to 50 nM | > 500 nM |
| CNc1cc2nc(N[C@@H](C)c3cccnc3)nc(C(=O)N3CC(O)C3)c2s1 [Example Z240, (S)-(3-Hydroxyazetidin-1-yl)(6-(methylamino)-2-((1-(pyridin-3-yl)ethyl)amino)thieno[3,2-d]pyrimidin-4-yl)methanone] | > 500 nM | > 500 nM | 23.69 | 10 to 50 nM | > 500 nM |
| C[C@H](Nc1nc(C(=O)NCCO)c2sccc2n1)c1cncc(F)c1 [Example Z275, (S)-2-((1-(5-Fluoropyridin-3-yl)ethyl)amino)-N-(2-hydroxyethyl)thieno[3,2-d]pyrimidine-4-carboxamide] | > 500 nM | > 500 nM | 24.38 | < 10 nM | 100 to 500 nM |
| C[C@H](Nc1nc(C(=O)NCCc2ccncc2)c2sccc2n1)c1cncc(F)c1 [Example Z382, (S)-2-((1-(5-Fluoropyridin-3-yl)ethyl)amino)-N-(2-(pyridin-4-yl)ethyl)thieno[3,2-d]pyrimidine-4-carboxamide] | > 500 nM | > 500 nM | 18.44 | 10 to 50 nM | > 500 nM |
| C[C@H](Nc1nc(C(=O)N2CCC2)c2sc(N)cc2n1)c1cncc(F)c1 [Example Z241, (S)-(6-Amino-2-((1-(5-fluoropyridin-3-yl)ethyl)amino)thieno[3,2-d]pyrimidin-4-yl)(azetidin-1-yl)methanone] | > 500 nM | > 500 nM | 78.77 | < 10 nM | 50 to 100 nM |
| C[C@H](Nc1nc(C(=O)N2CCCC2)c2sc(N)cc2n1)c1cncc(F)c1 [Example Z223, (S)-(6-Amino-2-((1-(5-fluoropyridin-3-yl)ethyl)amino)thieno[3,2-d]pyrimidin-4-yl)(pyrrolidin-1-yl)methanone] | > 500 nM | > 500 nM | 158.10 | < 10 nM | 100 to 500 nM |
| Cc1cc2nc(N[C@@H](C)c3ccccn3)nc(C(=O)NCCO)c2s1 [Example Z353, (S)—N-(2-Hydroxyethyl)-6-methyl-2-((1-(pyridin-2-yl)ethyl)amino)thieno[3,2-d]pyrimidine-4-carboxamide] | 50 to 100 nM | 50 to 100 nM | 53.12 | < 10 nM | 100 to 500 nM |
| C[C@H](Nc1nc(C(=O)N2CC[C@H](CO)C2)c2sccc2n1)c1cccnc1 [Example Z259, ((S)-3-(Hydroxymethyl)pyrrolidin-1-yl)(2-(((S)-1-(pyridin-3-yl)ethyl)amino)thieno[3,2-d]pyrimidin-4-yl)methanone] | > 500 nM | > 500 nM | 31.95 | 10 to 50 nM | 100 to 500 nM |
| CNc1cc2nc(N[C@@H](C)c3cncc(F)c3)nc(C(=O)N3CC(OC)C3)c2s1 [Example Z243, (S)-(2-((1-(5-Fluoropyridin-3-yl)ethyl)amino)-6-(methylamino)thieno[3,2-d]pyrimidin-4-yl)(3-methoxyazetidin-1-yl)methanone] | 50 to 100 nM | > 500 nM | 112.45 | < 10 nM | 100 to 500 nM |
| C[C@H](Nc1nc(C(=O)N2CCCC2)c2sc(C(F)(F)F)cc2n1)c1cccnc1 [Example Z327, (S)-(2-((1-(Pyridin-3-yl)ethyl)amino)-6-(trifluoromethyl)thieno[3,2-d]pyrimidin-4-yl)(pyrrolidin-1-yl)methanone] | > 500 nM | > 500 nM | 143.99 | < 10 nM | > 500 nM |
| Cc1cc2nc(N[C@@H](C)c3cncc(F)c3)nc(C(=O)NCC(F)(F)F)c2s1 [Example Z280, (S)-2-((1-(5-Fluoropyridin-3-yl)ethyl)amino)-6-methyl-N-(2,2,2-trifluoroethyl)thieno[3,2-d]pyrimidine-4-carboxamide] | 50 to 100 nM | 10 to 50 nM | 24.55 | < 10 nM | 10 to 50 nM |
| Cc1cc2nc(N[C@@H](C)c3ccccn3)nc(C(=O)NC[C@H](C)O)c2s1 [Example Z287, N—((S)-2-Hydroxypropyl)-6-methyl-2-(((S)-1-(pyridin-2-yl)ethyl)amino)thieno[3,2-d]pyrimidine-4-carboxamide] | 50 to 100 nM | > 500 nM | 23.71 | 10 to 50 nM | 100 to 500 nM |
| C[C@H](Nc1nc(C(=O)N2CCC[C@H]2C)c2sccc2n1)c1cncc(F)c1 [Example Z272, (2-(((S)-1-(5-Fluoropyridin-3-yl)ethyl)amino)thieno[3,2-d]pyrimidin-4-yl)((R)-2-methylpyrrolidin-1-yl)methanone] | > 500 nM | > 500 nM | 9.34 | 10 to 50 nM | 100 to 500 nM |
| C[C@H](Nc1nc(C(=O)NCC(F)(F)F)c2sccc2n1)c1cncc(F)c1 [Example Z263, (S)-2-((1-(5-Fluoropyridin-3-yl)ethyl)amino)-N-(2,2,2-trifluoroethyl)thieno[3,2-d]pyrimidine-4-carboxamide] | > 500 nM | > 500 nM | 9.48 | 10 to 50 nM | 100 to 500 nM |
| Cc1cc2nc(N[C@@H](C)c3cncc(F)c3)nc(C(=O)NCCc3ccc(O)cc3)c2s1 [Example Z373, (S)-2-((1-(5-Fluoropyridin-3-yl)ethyl)amino)-N-(4-hydroxyphenethyl)-6-methylthieno[3,2-d]pyrimidine-4-carboxamide] | 10 to 50 nM | 50 to 100 nM | 75.08 | < 10 nM | 100 to 500 nM |
| CO[C@H]1CCN(C(=O)c2nc(N[C@@H](C)c3cncc(Cl)c3)nc3ccsc23)C1 [Example Z254, (2-(((S)-1-(5-Chloropyridin-3-yl)ethyl)amino)thieno[3,2-d]pyrimidin-4-yl)((S)-3-methoxypyrrolidin-1-yl)methanone] | > 500 nM | > 500 nM | 9.38 | 10 to 50 nM | 100 to 500 nM |
| CNc1cc2nc(N[C@@H](C)c3ccccn3)nc(C(=O)NCCO)c2s1 [Example Z222, (S)—N-(2-Hydroxyethyl)-6-(methylamino)-2-((1-(pyridin-2-yl)ethyl)amino)thieno[3,2-d]pyrimidine-4-carboxamide] | > 500 nM | > 500 nM | 44.93 | 10 to 50 nM | > 500 nM |
